Activity data for two molecules are collected here from ChEMBL document CHEMBL2074549, “Regulation of 2-acetylaminofluorene-and 3-methylcholanthrene--mediated induction of multidrug resistance and cytochrome P450IA gene family expression in primary hepatocyte cultures and rat liver” (Mol Carcinog, 1991).

Series [1] addresses Multidrug resistance protein 1a (Rattus norvegicus) (UniProt Q6PSM0). In words: TP_TRANSPORTER: Western blot, primary hepatocytes. In kind it is functional, cell-based. The note with it: Hepatocyte.
The target in series [2] is ATP-dependent translocase ABCB1 (Rattus norvegicus, UniProt P43245). In words: TP_TRANSPORTER: Northern blot from primary hepatocytes. In kind it is functional, Hepatocyte.
Sequence of ATP-dependent translocase ABCB1 (P43245 whole entry): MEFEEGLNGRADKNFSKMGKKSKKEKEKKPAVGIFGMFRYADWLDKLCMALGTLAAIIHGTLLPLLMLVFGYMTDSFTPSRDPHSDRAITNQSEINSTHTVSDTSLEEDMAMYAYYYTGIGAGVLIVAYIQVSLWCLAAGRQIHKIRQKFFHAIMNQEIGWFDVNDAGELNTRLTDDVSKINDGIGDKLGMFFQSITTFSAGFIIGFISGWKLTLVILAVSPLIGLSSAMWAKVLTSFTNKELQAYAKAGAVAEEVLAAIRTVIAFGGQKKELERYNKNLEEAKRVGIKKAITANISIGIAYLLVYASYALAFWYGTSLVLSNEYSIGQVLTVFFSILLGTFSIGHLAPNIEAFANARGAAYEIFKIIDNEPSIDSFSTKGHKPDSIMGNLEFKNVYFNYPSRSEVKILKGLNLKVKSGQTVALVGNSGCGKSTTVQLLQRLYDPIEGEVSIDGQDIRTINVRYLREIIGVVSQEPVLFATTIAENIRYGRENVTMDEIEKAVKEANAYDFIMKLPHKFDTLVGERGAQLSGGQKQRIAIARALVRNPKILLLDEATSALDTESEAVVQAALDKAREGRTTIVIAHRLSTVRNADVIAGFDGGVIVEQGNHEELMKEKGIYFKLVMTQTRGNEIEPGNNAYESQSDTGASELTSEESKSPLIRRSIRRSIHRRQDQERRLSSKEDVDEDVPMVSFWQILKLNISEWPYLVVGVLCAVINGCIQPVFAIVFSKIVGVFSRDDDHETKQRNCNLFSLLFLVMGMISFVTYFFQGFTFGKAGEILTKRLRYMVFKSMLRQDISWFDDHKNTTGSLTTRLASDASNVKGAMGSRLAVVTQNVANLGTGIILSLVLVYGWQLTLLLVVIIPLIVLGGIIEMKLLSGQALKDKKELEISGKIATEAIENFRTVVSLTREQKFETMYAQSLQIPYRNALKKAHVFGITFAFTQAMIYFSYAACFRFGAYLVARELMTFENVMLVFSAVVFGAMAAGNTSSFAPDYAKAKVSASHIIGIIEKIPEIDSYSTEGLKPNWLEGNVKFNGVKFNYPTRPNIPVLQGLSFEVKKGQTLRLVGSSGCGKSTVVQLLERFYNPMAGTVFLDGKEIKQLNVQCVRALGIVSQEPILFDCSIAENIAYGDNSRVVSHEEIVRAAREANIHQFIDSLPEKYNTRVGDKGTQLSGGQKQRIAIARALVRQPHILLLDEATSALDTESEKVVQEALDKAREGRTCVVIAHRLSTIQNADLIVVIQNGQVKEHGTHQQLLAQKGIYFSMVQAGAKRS

Sequence of Multidrug resistance protein 1a (Rattus norvegicus) (Q6PSM0 as listed by the source): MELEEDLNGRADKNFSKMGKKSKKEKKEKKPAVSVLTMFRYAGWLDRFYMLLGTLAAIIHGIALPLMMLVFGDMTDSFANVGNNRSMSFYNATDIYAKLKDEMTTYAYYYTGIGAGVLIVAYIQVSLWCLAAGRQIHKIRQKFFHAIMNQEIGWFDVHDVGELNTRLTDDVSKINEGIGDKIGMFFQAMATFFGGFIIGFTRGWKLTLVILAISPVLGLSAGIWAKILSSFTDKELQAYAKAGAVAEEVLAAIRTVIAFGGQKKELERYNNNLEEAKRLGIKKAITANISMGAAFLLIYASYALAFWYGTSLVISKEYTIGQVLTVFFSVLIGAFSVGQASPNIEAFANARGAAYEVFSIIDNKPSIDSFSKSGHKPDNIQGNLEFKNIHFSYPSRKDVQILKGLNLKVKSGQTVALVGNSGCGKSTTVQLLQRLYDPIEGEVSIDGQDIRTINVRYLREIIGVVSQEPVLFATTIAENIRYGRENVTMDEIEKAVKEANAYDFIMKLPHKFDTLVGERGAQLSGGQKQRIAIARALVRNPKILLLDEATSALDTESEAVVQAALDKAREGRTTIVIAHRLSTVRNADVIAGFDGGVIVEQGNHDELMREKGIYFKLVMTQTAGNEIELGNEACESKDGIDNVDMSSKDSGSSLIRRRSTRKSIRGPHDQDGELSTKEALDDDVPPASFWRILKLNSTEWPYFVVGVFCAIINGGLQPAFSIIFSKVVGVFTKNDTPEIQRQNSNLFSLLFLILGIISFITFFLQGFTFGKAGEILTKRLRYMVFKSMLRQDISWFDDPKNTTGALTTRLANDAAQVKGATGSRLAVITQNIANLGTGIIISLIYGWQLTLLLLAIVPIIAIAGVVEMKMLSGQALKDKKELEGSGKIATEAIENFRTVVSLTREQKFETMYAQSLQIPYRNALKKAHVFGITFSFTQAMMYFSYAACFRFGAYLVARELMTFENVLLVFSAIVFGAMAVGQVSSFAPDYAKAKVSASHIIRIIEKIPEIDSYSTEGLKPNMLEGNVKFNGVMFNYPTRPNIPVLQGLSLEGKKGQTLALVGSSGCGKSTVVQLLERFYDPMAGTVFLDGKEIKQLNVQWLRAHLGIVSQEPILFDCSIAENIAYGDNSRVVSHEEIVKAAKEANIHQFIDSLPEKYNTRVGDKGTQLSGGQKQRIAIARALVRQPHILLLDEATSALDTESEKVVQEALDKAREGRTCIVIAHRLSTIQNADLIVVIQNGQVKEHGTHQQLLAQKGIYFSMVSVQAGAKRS

With `CC(=O)Nc1ccc2c(c1)Cc1ccccc1-2`, the Activity entry in series [1] is “inducer [+]”.

On to `Cc1ccc2cc3c(ccc4ccccc43)c3c2c1CC3` [3-METHYLCHOLANTHRENE], for which the Activity entry in series [2] and in series [1] was “inducer [+]” in each case.
